The test system of data set [1] is SHMT2 (mitochondrial C1 metabolism) in KB tumor cells. The data set can be described thus: Targeted metabolomics flux analysis with [2,3,3-2H]serine in KB cells. In kind it is cell-based, human. The note with it: 0.1 μM compound, 250 μM [2,3,3-2H]serine, versus vehicle-treated cells. The text has this:
Serine is catabolized in the mitochondria via SHMT2, which converts serine to glycine and 5,10-methylene THF, the latter of which is metabolized by MTHFD2 to 10-CHOTHF and by MTHFD1L to formate (Figure 7).
The cells were processed for liquid chromatography–mass spectrometry (LC–MS) analysis of total serine and glycine, and deuterated serine (M + 3, M + 2, M + 1, and M + 0 serine, where M + n represents species with n deuterium atoms) and glycine (M + 1 and M + 0) isotopomers. The results are shown in Figure 8 and are compared to those for control (vehicle-treated) cells (labeled “N/A”).
Figure 8 Metabolomics flux analysis with [2,3,3-^2H]serine to assay mitochondrial C1 metabolism via SHMT2. (A) A schematic of [2,3,3-^2H]serine metabolism is shown. Heavy (^2H) atoms in serine (colored circles) are metabolized via SHMT2 initially followed by MTHFD2 and MTHFD1L to formate. (B, C) Total serine and glycine and the distribution of the serine (M + n, n = 0−3) and glycine (n = 0 or 1) isotopomers are shown. The loss of M + 3 serine corresponding to the metabolism of [2,3,3-^2H]serine to M + 1 glycine is a direct measure of SHMT2 activity in the cells.[45] Experimental methods are described in the Experimental Section. Results are shown as mean values plus/minus standard deviations (n = 3). *P < 0.05; **P < 0.01. […]
KB cells (1 × 10[6]) were seeded in each of three 60 mm dishes in folate-, serine-, and glycine-free RPMI1640 supplemented with 10% DFBS, 1% penicillin/streptomycin, 2 mM L-glutamine, 285 μM serine, 130 μM glycine, and 2 nM leucovorin. […] The targeted metabolites were quantitatively determined using the AB Sciex QTRAP 6500 LC–MS/MS system. […] Isotopomers were detected using multiple reaction monitoring (MRM) at the positive ionization mode. […] Absolute metabolite concentrations were calculated from calibration curves and then normalized to total protein concentrations measured from the postextraction pellet (solubilized in 0.5 N NaOH) using the Folin-phenol method.[53] […] To correct for multiple comparisons, adjusted p values were determined using Holm’s method.

Data set [2] concerns RT16 CHO cells (expresses only human FRα). The data set can be described thus: Cell proliferation assay, RT16 CHO subline. In kind it is cell-based, Chinese hamster. An excerpt: (§1) We used a unique panel of engineered Chinese hamster ovary (CHO) sublines derived from a transporter-null MTXRIIOua^R2-4 CHO subline (R2) and designed to individually express human FRα (RT16), FRβ (D4), RFC (PC43-10), or PCFT (R2/PCFT).[39]−[42] As the CHO sublines are isogenic and differ only in the presence or absence of the human folate transporters, differences in the extent of inhibition of cell proliferation between the cell lines upon treatment with the various compounds provide a robust readout of transport specificities.[25],[26],[29],[30],[43]
(§2) The CHO sublines were treated for 96 h with a range of drug concentrations up to 1000 nM; cell viabilities were measured with a fluorescence assay.[26] […] As a control, we used transporter-null R2 cells.[42] To extend studies to human tumor cells, we also performed experiments in RFC-, PCFT-, and FRα-expressing KB tumor cells.[44] To confirm the contribution of FR-mediated uptake to antitumor activity, for KB cells, we added 200 nM folic acid, which inhibits FR uptake by direct competition without effects on either RFC or PCFT.[25],[26],[28]−[30],[43]
(§3) The MTXRIIOua^R2-4 RFC-, PCFT-, and FRα-null Chinese hamster ovary (CHO) cell line (R2) was a gift from Dr. Wayne Flintoff (University of Western Ontario).[40],[42] Isogenic CHO cell lines were subsequently derived from R2 cells by transfection with RFC, PCFT, or FRα cDNAs to generate PC43-10 (expresses only human RFC), R2/PCFT4 (expresses only human PCFT), RT16 (expresses only human FRα), and D4 (expresses only human FRβ).[25],[26],[39]
(§4) The CHO sublines were cultured in α-minimal essential medium (α-MEM) supplemented with 100 U/mL penicillin/100 μg/mL streptomycin, 2 mM L-glutamine, and 10% bovine calf serum (Sigma-Aldrich). For the PC43-10, R2/PCFT4, RT16, and D4 sublines, 1.5 mg/mL G418 was also added. Seventy-two hours prior to in vitro proliferation assays (below), RT16 and D4 CHO cells were grown in folate-free RPMI with dialyzed fetal bovine serum (DFBS) (Invitrogen) supplemented with 100 U/mL penicillin/[…] streptomycin and 2 mM L-glutamine. FRα-expressing KB nasopharyngeal carcinoma cells were acquired from the American Type Culture Collection (Manassas, VA); cells were grown in complete folate-free RPMI 1640 supplemented with 10% fetal bovine serum, 100 U/mL penicillin/100 μg/mL streptomycin, and 2 mM L-glutamine. Cell lines were authenticated by STR analysis (Genetica DNA Laboratories, Burlington, NC) and tested for Mycoplasma by PCR (Venor GeM Mycoplasma Detection Kit, Sigma). Frozen stocks were generated from authenticated Mycoplasma-free cultures.
(§5) Cell proliferation assays used CHO and KB cells cultured in folate-free-RPMI 1640 media with 10% DFBS, 2 mM L-glutamine, and 100 U/mL penicillin/100 μg/mL streptomycin supplemented with 2 nM (KB, RT16, D4) or 25 nM (R2, PC43-10, R2/PCFT4) leucovorin.[25],[26],[30] Parallel incubations with 200 nM folic acid were performed in viability assays to confirm FR-mediated drug uptake. Cells were plated in 96-well dishes at 2500–5000 cells/well in 200 μL media and treated with a range of C1 inhibitors spanning 0 to 1 μM. Cells were treated at 37 ° C with 5% CO2, and numbers were assayed after 96 h using CellTiter-blue (Promega, Madison, WI) and a fluorescence plate reader.[25],[26]

The test system of data set [3] is D4 CHO cells (expresses only human FRβ). The data set can be described thus: Cell proliferation assay, D4 CHO subline. It counts as cell-based, Chinese hamster. The note with it: 96 h, 2 nM leucovorin, mean (standard error).
Text: as §1, §2, §3, §4, §5

[4] abbreviates: Homo sapiens, RT16, 96 h, 2 nM leucovorin, mean (standard error).
The mark [5] stands for this setting: Homo sapiens, RT16; 96 h, 2 nM leucovorin; mean (standard error).

This note sets out measurements from PMC10186366 (ACS Pharmacology & Translational Science, 2023).

As for `Nc1nc2sc(CCCc3ccc(C(=O)N[C@@H](CCC(=O)O)C(=O)O)cc3)cc2c(=O)[nH]1` [Compound 1], the “Increase in M + 3 serine” value in data set [1] is listed as 2–4 fold.
In general, IC50 refers to the midpoint of a concentration-inhibition curve. A lower IC50 goes with inhibition by little substance. As a reminder, the melting point is the temperature, or range, at which the solid turns liquid. With `Nc1nc2sc(CCCCc3cccc(C(=O)N[C@@H](CCC(=O)O)C(=O)O)n3)cc2c(=O)[nH]1` [Compound 3, (6-(4-(2-Amino-4-oxo-3,4-dihydrothieno[2,3-d]pyrimidin-6-yl)butyl)picolinoyl)-L-glutamic Acid], the melting point lay in the range of 125.8 to 126.2 °C. The same molecule had an IC50 in data set [2] (96 h, 2 nM leucovorin; mean (standard error)) of 24.7 nM. For the same molecule, the IC50 in data set [2] (setting [4]) is 25 nM. The IC50 in data set [3] was 41.9 nM.
Regarding `Nc1nc2sc(CCCCc3ccc(C(=O)N[C@@H](CCC(=O)O)C(=O)O)nc3)cc2c(=O)[nH]1` [Compound 4, (5-(4-(2-Amino-4-oxo-3,4-dihydrothieno[2,3-d]pyrimidin-6-yl)butyl)picolinoyl)-L-glutamic Acid], the IC50 in data set [2] (setting [5]) turned out to be 0.94 nM; in data set [3], 60.8 nM.
`Nc1nc2sc(CCCCc3cnc(C(=O)N[C@@H](CCC(=O)O)C(=O)O)c(F)c3)cc2c(=O)[nH]1` [Compound 5, (5-(4-(2-Amino-4-oxo-3,4-dihydrothieno[2,3-d]pyrimidin-6-yl)butyl)-3-fluoropicolinoyl)-L-glutamic Acid] had a melting point of 128 to 129.7 °C. This molecule showed an IC50 in data set [2] (setting [4]) of 1.23 nM. In addition, the IC50 in data set [3] came out at 0.25 nM.
For the molecule `Nc1nc2sc(CCCc3ccc(C(=O)N[C@@H](CCC(=O)O)C(=O)O)c(F)c3)cc2c(=O)[nH]1` [Compound 6, (4-(3-(2-Amino-4-oxo-3,4-dihydrothieno[2,3-d]pyrimidin-6-yl)propyl)-2-fluorobenzoyl)-L-glutamic Acid], the melting point was 128 to 129.8 °C. In data set [1], the “Increase in M + 3 serine” value is 2–4 fold. Moreover, in data set [2] (setting [4]), the IC50 was 1.07 nM. The same molecule registered an IC50 in data set [3] of 0.48 nM.
The molecule `Nc1nc2sc(CCCCc3ccc(C(=O)N[C@@H](CCC(=O)O)C(=O)O)c(F)c3)cc2c(=O)[nH]1` [Compound 7, (4-(4-(2-Amino-4-oxo-3,4-dihydrothieno[2,3-d]pyrimidin-6-yl)butyl)-2-fluorobenzoyl)-L-glutamic Acid] had a melting point of 121.7 to 122.6 °C. Besides, the IC50 in data set [2] (setting [4]) was 2.27 nM. It took 1.14 nM to reach half-maximal inhibition in data set [3] (IC50).
With `Nc1nc2sc(CCCc3csc(C(=O)N[C@@H](CCC(=O)O)C(=O)O)c3F)cc2c(=O)[nH]1` [Compound 8, (4-(3-(2-Amino-4-oxo-3,4-dihydrothieno[2,3-d]pyrimidin-6-yl)propyl)-3-fluorothiophene-2-carbonyl)-L-glutamic Acid], the IC50 was 1.96 nM in data set [2] (setting [4]) and 0.26 nM in data set [3].
`Nc1nc2sc(CCCCc3csc(C(=O)N[C@@H](CCC(=O)O)C(=O)O)c3F)cc2c(=O)[nH]1` [Compound 9, (4-(4-(2-Amino-4-oxo-3,4-dihydrothieno[2,3-d]pyrimidin-6-yl)butyl)-3-fluorothiophene-2-carbonyl)-L-glutamic Acid]: the melting point lay in the range of 142.3 to 143.5 °C. In addition, the IC50 in data set [2] (setting [5]) amounted to 1.29 nM. Moreover, the IC50 in data set [3] came out at 0.48 nM.
